Measured values published in patent publication US8933233B2, “1,3,4-oxadiazole and 1,3,4-thiadiazole β-lactamase inhibitors” (priority 2012, dated 2015).
Where a name gives a salt, the structure may show the parent alone.

Assays:
[1] = tested on: bacterial strains that express KPC β-lactamases; test: Synergy MIC / standard BLI potentiation MIC assay, strains expressing KPC β-lactamases; format: cell-based, isogenic E. coli and clinical isolates; settings: more active for at least one KPC strain and/or better spectrum; comparator Avibactam
How it was run: (§1)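 Broth microdilution in CAMHB per CLSI M07-A9, ~10^5 CFU/mL inoculum, 18–20 h at 37 °C with aeration; engineered E. coli kept with 25 μg/mL tetracycline. β-lactam 2-fold from 128 to 0.13 μg/mL with BLI fixed at 4 μg/mL, or BLI serially diluted with β-lactam fixed; MIC is lowest concentration without visible turbidity.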

[2] = tested on: bacterial strains that express the class D cephalosporinase OXA-15; test: Synergy MIC / standard BLI potentiation MIC assay, strains expressing OXA-15; format: cell-based, E. coli; settings: in presence of a β-lactam; comparator Avibactam (CCC)
How it was run: as §1

SMILES | activity and/or spectrum of activity against bacterial strains that express KPC β-lactamases, compared with Avibactam [1] | activity against bacterial strains that express OXA-15, compared with Avibactam [2]
O=C1N2C[C@@H](CC[C@H]2c2nnc(CC3CCNC3)o2)N1OS(=O)(=O)O (stereo partly drawn) [Compound 764, (2S,5R)-7-oxo-2-(5-(pyrrolidin-3-ylmethyl)-1,3,4-oxadiazol-2-yl)-1,6-diazabicyclo[3.2.1]octan-6-yl hydrogen sulfate] | more active than Avibactam | more active than Avibactam
O=C1N2C[C@@H](CC[C@H]2c2nnc(CN[C@H]3CCNC3)o2)N1OS(=O)(=O)O [Compound 765, (2S,5R)-7-oxo-2-(5-(((S)-pyrrolidin-3-ylamino)methyl)-1,3,4-oxadiazol-2-yl)-1,6-diazabicyclo[3.2.1]octan-6-yl hydrogen sulfate] | more active than Avibactam | more active than Avibactam
O=C1N2C[C@@H](CC[C@H]2c2nnc(CN[C@@H]3CCNC3)o2)N1OS(=O)(=O)O [Compound 766, (2S,5R)-7-oxo-2-(5-(((R)-pyrrolidin-3-ylamino)methyl)-1,3,4-oxadiazol-2-yl)-1,6-diazabicyclo[3.2.1]octan-6-yl hydrogen sulfate] | more active than Avibactam | more active than Avibactam
N=C1NCC(c2nnc([C@@H]3CC[C@@H]4CN3C(=O)N4OS(=O)(=O)O)o2)N1 (stereo partly drawn) [Compound 767, (2S,5R)-2-(5-(2-iminoimidazolidin-4-yl)-1,3,4-oxadiazol-2-yl)-7-oxo-1,6-diazabicyclo[3.2.1]octan-6-yl hydrogen sulfate] | more active than Avibactam | more active than Avibactam
N[C@H]1CC[C@@H](c2nnc([C@@H]3CC[C@@H]4CN3C(=O)N4OS(=O)(=O)O)o2)C1 [Compound 768, (2S,5R)-2-(5-((1R,3S)-3-aminocyclopentyl)-1,3,4-oxadiazol-2-yl)-7-oxo-1,6-diazabicyclo[3.2.1]octan-6-yl hydrogen sulfate] | more active than Avibactam | more active than Avibactam
O=C1N2C[C@@H](CC[C@H]2c2nnc(CCNC3CCNCC3)o2)N1OS(=O)(=O)O [Compound 770, (2S,5R)-7-oxo-2-(5-(2-(piperidin-4-ylamino)ethyl)-1,3,4-oxadiazol-2-yl)-1,6-diazabicyclo[3.2.1]octan-6-yl hydrogen sulfate] | more active than Avibactam | more active than Avibactam
O=C1N2C[C@@H](CC[C@H]2c2nnc(CCCNC3CCNCC3)o2)N1OS(=O)(=O)O [Compound 771, (2S,5R)-7-oxo-2-(5-(3-(piperidin-4-ylamino)propyl)-1,3,4-oxadiazol-2-yl)-1,6-diazabicyclo[3.2.1]octan-6-yl hydrogen sulfate] | more active than Avibactam | more active than Avibactam
O=C1N2C[C@@H](CC[C@H]2c2nnc(CCCCNC3CCNCC3)o2)N1OS(=O)(=O)O [Compound 772, (2S,5R)-7-oxo-2-(5-(4-(piperidin-4-ylamino)butyl)-1,3,4-oxadiazol-2-yl)-1,6-diazabicyclo[3.2.1]octan-6-yl hydrogen sulfate] | more active than Avibactam | more active than Avibactam
NC1CCN(Cc2nnc([C@@H]3CC[C@@H]4CN3C(=O)N4OS(=O)(=O)O)o2)CC1 [Compound 774, (2S,5R)-2-(5-((4-aminopiperidin-1-yl)methyl)-1,3,4-oxadiazol-2-yl)-7-oxo-1,6-diazabicyclo[3.2.1]octan-6-yl hydrogen sulfate] | more active than Avibactam | more active than Avibactam
O=C1N2C[C@@H](CC[C@H]2c2nnc(CCN3CCNCC3)o2)N1OS(=O)(=O)O [Compound 776, (2S,5R)-7-oxo-2-(5-(2-(piperazin-1-yl)ethyl)-1,3,4-oxadiazol-2-yl)-1,6-diazabicyclo[3.2.1]octan-6-yl hydrogen sulfate] | more active than Avibactam | more active than Avibactam
O=C1N2C[C@@H](CC[C@H]2c2nnc(CN3CCNCC3)o2)N1OS(=O)(=O)O [Compound 777, (2S,5R)-7-oxo-2-(5-(piperazin-1-ylmethyl)-1,3,4-oxadiazol-2-yl)-1,6-diazabicyclo[3.2.1]octan-6-yl hydrogen sulfate] | more active than Avibactam | more active than Avibactam
O=C1N2C[C@@H](CC[C@H]2c2nnc([C@H]3CNCCN3)o2)N1OS(=O)(=O)O [Compound 779, (2S,5R)-7-oxo-2-(5-((R)-piperazin-2-yl)-1,3,4-oxadiazol-2-yl)-1,6-diazabicyclo[3.2.1]octan-6-yl hydrogen sulfate] | more active than Avibactam | more active than Avibactam
C[n+]1ccc(-c2nnc([C@@H]3CC[C@@H]4CN3C(=O)N4OS(=O)(=O)[O-])o2)cc1 [Compound 782, (2S,5R)-2-(5-(1-methylpyridin-1-ium-4-yl)-1,3,4-oxadiazol-2-yl)-7-oxo-1,6-diazabicyclo[3.2.1]octan-6-yl sulfate] | more active than Avibactam | more active than Avibactam
N[C@H]1C[C@H](c2nnc([C@@H]3CC[C@@H]4CN3C(=O)N4OS(=O)(=O)O)s2)C1 [Compound 783, (2S,5R)-2-(5-((1r,3S)-3-aminocyclobutyl)-1,3,4-thiadiazol-2-yl)-7-oxo-1,6-diazabicyclo[3.2.1]octan-6-yl hydrogen sulfate] | more active than Avibactam | more active than Avibactam
N=C(N)N[C@H]1C[C@@H](c2nnc([C@@H]3CC[C@@H]4CN3C(=O)N4OS(=O)(=O)O)s2)C1 [Compound 784, (2S,5R)-2-(5-((1s,3R)-3-guanidinocyclobutyl)-1,3,4-thiadiazol-2-yl)-7-oxo-1,6-diazabicyclo[3.2.1]octan-6-yl hydrogen sulfate] | more active than Avibactam | more active than Avibactam
N=C(N)NCCc1nnc([C@@H]2CC[C@@H]3CN2C(=O)N3OS(=O)(=O)O)s1 [Compound 794, (2S,5R)-2-(5-(2-guanidinoethyl)-1,3,4-thiadiazol-2-yl)-7-oxo-1,6-diazabicyclo[3.2.1]octan-6-yl hydrogen sulfate] | more active than Avibactam | more active than Avibactam
N[C@H]1C[C@@H](c2nnc([C@@H]3CC[C@@H]4CN3C(=O)N4OS(=O)(=O)O)s2)C1 [Compound 795, (2S,5R)-2-(5-((1s,3R)-3-aminocyclobutyl)-1,3,4-thiadiazol-2-yl)-7-oxo-1,6-diazabicyclo[3.2.1]octan-6-yl hydrogen sulfate] | more active than Avibactam | more active than Avibactam
